The test system of series [1] is laboratory mice, strain CD-1. The series can be described thus: Open field test (locomotor activity, sedative effect). On Open Field Test No Evidence of Hyperlocomotion: key: −: the desired effect was not observed; −/+: the desired effect was insufficient; +: the desired effect was observed. On Sedative Effect The Rapid Onset of Sedation at a Dose of 100 mg/kg: key: −: the desired effect was not observed; −/+: the desired effect was insufficient; +: the desired effect was observed. The series is classed as in vivo. To be noted: for pathway in open field: dose 10 and 100 mg/kg, vs intact mice; for locomotor activity over time: higher dose of 10 resp. 100 mg/kg; for Open Field Test No Evidence of Hyperlocomotion / Sedative Effect The Rapid Onset of Sedation at a Dose of 100 mg/kg: intraperitoneally; for Open Field Test No Evidence of Hyperlocomotion: 0.1-100 mg/kg; for hyperlocomotion in open field: lower doses (below 10 mg/kg). The method, then: (§1) In the Experimental Part 1 were used adults (30-35 g) male laboratory mice, strain CD-1 from Velaz facility, Czech Republic. Mice were housed in plastic boxes with a 12-hour light cycle (lights on at 7:00 pm). Mice had free access to food and water.
(§2) Amphiphilic steroid compounds were dissolved in a solution of 3 g (2-hydroxypropyl)-β-cyclodextrin (CDX, Sigma-Aldrich) and 157 mg of citric acid ([…], Sigma-Aldrich) in 30 ml of distilled water, the pH was adjusted to 7.4 using sodium hydroxide (NaOH, Sigma-Aldrich). Thus there were prepared solutions of the four steroids for application rates of 0.1, 1, 10 and 100 mg/kg.
The efficacy of the studied compounds was compared to known NMDA antagonist is memantine (Sigma-Aldrich) at a dose of 5 mg/kg in rats, ketamine (Vétoquinol) at 10 mg/kg and dizocilpine (MK-801) (Sigma-Aldrich) at a dose of 0.3 mg/kg in mice. These three compounds were dissolved in saline (B Braun).
The substances at dose 0.1-100 mg/kg were administered before the test to mice intraperitoneally. As controls were used intact mice and mice that received CDX solution. Also, MK-801 (0.3 mg/kg) was used for comparison of effects of noncompetitive antagonist of NMDA receptors. From the experiment was evaluated overall track anywhere in the arena as an indicator of locomotor activity. In addition, it was judged a ten-minute segments track during each experiment. Based on these values, it was possible to determine the latency time of onset of action and changes in locomotor activity over time.
In this arrangement, the sedative effect of the studied compounds at the highest dose was evaluated. […] Over time was monitored locomotor activity and possible changes characterized by tremor, ataxia, restlessness, or sedation or general anesthesia (absence of response to stimuli, decreased muscle tone).

The test system of series [2] is laboratory mice, strain CD-1. The series can be described thus: Elevated plus maze (anxiety). It is filed as in vivo. The following applies: vs saline and CDX controls. The method, then:
as §1, §2
The elevated plus maze (EPM) experiment was used to determine the effect of compounds on anxiety of animals at a dose of 1 mg/kg. Two control groups of animals were used to which was applied physiological saline and CDX solution, respectively. A noncompetitive NMDA receptor antagonist—ketamine (10 mg/kg) was given to a comparative group. The compounds were administered to mice intraperitoneally 30 minutes before testing in the EPM.

The mark [3] stands for this setting: 1 mg/kg i.p., 30 minutes before testing.

The text below walks through data of patent publication US10017535B2, “Amphiphilic compounds with neuroprotective properties” (USTAV ORGANICKE CHEMIE A BIOCHEMIE AV CR, v.v.i., priority 2014, dated 2018).

For the compound “Pyridinium (3S,3aS,5bR,7aR,9R,11aS,11bS,13aR)-3,11a-dimethylhexadecahydro-1H,3H-naphtho[2′,1′:4,5]indeno[1,7a-c]furan-9-yl 9-sulfate [Compound 124]”, in series [1], the “pathway in open field” value was “significant reduction”, the “locomotor activity over time” value is “significant decrease”, the “Open Field Test No Evidence of Hyperlocomotion” value is given as “+” and the “Sedative Effect The Rapid Onset of Sedation at a Dose of 100 mg/kg” value (from here on “Sedative Effect The Rapid Onset”) is “−”. Moreover, the “hyperlocomotion in open field” value in series [1] is reported as “not (unlike groups with dizocilpine) observed hyperlocomotion”.
As to `C[C@@]12CCC[C@H]1[C@@H]1CC[C@@H]3C[C@H](OC(=O)[C@@H](N)CCC(=O)O)CC[C@]3(C)[C@H]1CC2` [Compound 130, (4S)-4-Amino-5-(((3R,5R,8S,9S,10S,13S,14S)-10,13-dimethylhexadecahydro-1H-cyclopenta[a]phenanthren-3-yl)oxy)-5-oxopentanoic acid], in series [2] (setting [3]), the “number of entries into the open arms” value was “significantly increased” and the “total time spent in the open arms” value is on record as “significantly increased”. In addition, in series [2] (10 mg/kg), the “number of entries into the open arms” value is listed as “not significantly altered” and the “total time spent in the open arms” value is “significant increase”. For the same compound, in series [1] (10 resp. 100 mg/kg, between the 20th and 40th minute), the “signs of sleepiness and overall sedation” value is “most pronounced”. In series [1], the “pathway in open field” value is reported as “significant reduction”, the “locomotor activity over time” value is reported as “significant decrease”, the “Open Field Test No Evidence of Hyperlocomotion” value is on record as “+” and the “Sedative Effect The Rapid Onset” value is given as “+”. Besides, in series [1], the “hyperlocomotion in open field” value was “not (unlike groups with dizocilpine) observed hyperlocomotion”.
`C[C@@]12CCCCC1[C@@H]1CC[C@@H]3C[C@H](OC(=O)[C@@H](N)CCC(=O)O)CC[C@]3(C)[C@H]1CC2` (stereo partly drawn) [Compound 106, (4S)-4-Amino-5-(((2R,4aS,4bS,6aS,10bS,12aR)-4a,6a-dimethyloctadekahydrochrysen-2-yl)oxy)-5-oxopentanoic acid]: in series [1], the “pathway in open field” value is on record as “significant reduction”, the “locomotor activity over time” value was “significant decrease” and the “Sedative Effect The Rapid Onset” value was “−”.
